Data: patent publication US20080293699A1, “Inhibitors of thapsigargin-induced cell death” (priority 2007, published 2008)
“Also recorded” adds a separate entry of the source.

Tests used:
CSM14.1 cells = experiment: Tunicamycin-induced cell death of CSM14.1 cells; format: cell-based, rat
Experimental: CSM 14.1 cells were plated at a density of 3×10^3 cells/well in 96-well plates and incubated overnight. Cells were pre-incubated with 25 μM of each compound or 100 μM salubrinal for two hours, followed by […] tunicamycin treatment. 72 hours later, cell death rates were measured by flow cytometry analysis. Annexin V-negative population was considered as survivors. In FIG. 13, the white column represents 0.5% DMSO control showing 24% of survival, and the gray column 100 μM salubrinal. Black columns are data from each compound (25 μM) (compound numbers refer to the compounds in Table 9).
For the experiments shown in FIG. 18, undifferentiated CSM 14.1 cells were plated at 3,000 cells per well in 96-well plates (for the ATP assay) or at 1×10^4 cells per well in 24-well plates (for flow cytometry). The next day, cells were treated with DMSO (0.5%) or hit compounds 25 μM of a compound with 0.5% DMSO final concentration) for two hours, followed by treatment with various cell death-inducing reagents, including 15 μM Thapsigargin (TG) for 24 hrs, 10 μg/mL tunicamycin (TU) for 72 hrs, 2.5 μM staurosporine (STS) for 24 hrs, 50 μM VP16 for 48 hrs, or 30 ng/mL TNF plus 10 μg/mL cyclohexamide (CHX) for 24 hrs. Cellular ATP content was measured for staurosporine samples and TNF/CHX samples, normalizing data relative to cells treated with DMSO alone (the control) and presenting as a percentage of control. For measuring cell death resulting from treatment with tunicamycin and VP16, flow cytometry was used. All assays were performed in triplicate (mean ±SD).

CHOP = experiment: Thapsigargin-induced expression of CHOP; format: cell-based, rat; conditions: listed as CID-2878746
Experimental: CSM 14.1 cells were cultured with DMSO or with 25 μM of hit compounds for two hours followed by treatment with thapsigargin (15 μM). Cell lysates were prepared and analyzed by SDS-PAGE/immunoblotting using antibodies specific for: c-Jun, phosphor-c-Jun (ser 73), eIF2a, phosphor-eIF2a (ser 51), p38 MAPK, phosphor-p38 MAPK (Thr180/Tyr182), ATF-6, CHOP and tubulin (loading control). ER stress-induced activation of C-Jun and p38 MAPK is suppressed by the 11 hit compounds.

[1] = tested on: primary mouse neuronal cells; experiment: Thapsigargin-induced death of primary mouse neuronal cells, immunostaining and microscopy; format: cell-based; conditions: 25 μM, two hours before thapsigargin for 24 hours
Experimental: (§1) Primary cortical neuron cells were prepared from the […] of mice. After 14 days of maturation, the cells were preincubated with DMSO (0.2%) or 25 μM of compound 6239507 for two hours. The cells were then treated with thapsigargin (TG) for 24 hours. Cells were fixed with an aldehyde solution and subjected to immunostaining with NeuN and MAP2 antibody for staining the neuronal body and axon network. Hoechst dye was used to stain nuclei. To show the loss of the axon network by thapsigargin, a wide field was captured by fluorescent microscopy. Cells showing a condensed nucleus and shrunken neuritis were considered as dead to evaluate cell death.
as §1, with “Fluorescent microscopy was used to” for “To”, “thapsigargin.” for “thapsigargin, a wide field was captured by fluorescent microscopy.”

SMILES: CCN(CC)c1ccc(C2Nc3ccccc3NC3=C2C(=O)CC(c2ccccc2)C3)cc1 (stereo not drawn) [Compound 5962123, 6-(4-diethylaminophenyl)-9-phenyl-5,6,8,9,10,11-hexahydrobenzo[c][1,5]benzodiazepin-7-one]
- Inhibition of tunicamycin-induced cell death (CSM14.1 cells; CSM14.1 cells, annexin V flow cytometry where stated): inhibits; also recorded: confirmed
- Cytoprotective activity, stimulus Tunicamycin (Result) (CSM14.1 cells; readout Annexin, CSM 14.1, compound ≦25 μM): + (+indicates ≧50% rescue of cell viability relative to untreated cells not exposed to thapsigargin at compound concentration of ≦25 μM)
- IC50 (CSM14.1 cells; undifferentiated CSM14.1, ATP content assay, read-out: IC50, inhibition of tunicamycin-induced cell death): 10 µM
- Thapsigargin-induced expression of CHOP (CHOP): not inhibited
- Final DMSO concentration needed in culture media to avoid a visible cloudy precipitate: at least 0.2 % (v/v)

SMILES: COc1ccc(C2CC(=O)C3=C(C2)Nc2ccccc2NC3c2cccc(Oc3ccccc3)c2)cc1OC (stereo not drawn) [Compound 6239507]
- Inhibition of ER stress-induced cell death in primary mouse neuronal cells [1]: can inhibit
